The record followed here is article PMC2632993, “Conformational changes in α7 acetylcholine receptors underlying allosteric modulation by divalent cations” (BMC Pharmacology, 2009).

Common to all, as to format: cell-based, chick
In assay [1] the target is T1, α7 AChR M^40C mutant (C^115A/L^247T background) (Gallus gallus, UniProt P22770, C138A/L270T/M63C).
T1 construct: expressed in transfected cells; host or cells: Xenopus laevis oocytes injected with cRNA
An excerpt:
A cDNA clone of the chick α7 receptor containing two mutations (C^115A, L^247T) was used as the parental phenotype for mutations described in this study. We mutated the lone unpaired cysteine in the extracellular domain (C^115) to alanine to allow for a more straightforward interpretation of thiol modification experiments. […] We included the mutation of leucine 247 in the M2 transmembrane domain (L^247T; L9'T) because of its large current amplitudes and non-desensitizing kinetics compared to wild-type α7 receptors. […] All mutations were introduced by site-directed mutagenesis using the QuikChange method (Agilent Technologies, La Jolla, CA) as described previously, and were confirmed by DNA sequencing. […]
Oocytes were superfused in normal extracellular solution containing a reduced Ca^2+ concentration (ESLC; 96 mM NaCl, 2 mM KCl, 1 mM MgCl2, 0.1 mM CaCl2, and 10 mM HEPES, pH 7.5). […] Currents were recorded at a constant holding potential of -60 mV. […]
MTSEA was prepared daily in distilled water and stored on ice. […] Kinetic data were analyzed as described previously; rate data were fit to a single exponential to extract a pseudo-first order rate constant; this was divided by the MTSEA concentration used to determine the second order rate constant for thiol modification.

Assay [2] addresses α7 AChR N^52C mutant (C^115A/L^247T background) (Gallus gallus, UniProt P22770, C138A/L270T/N75C). The experiment in a line: ACh dose-response, two-electrode voltage clamp in Xenopus oocytes. An excerpt:
(§1) A cDNA clone of the chick α7 receptor containing two mutations (C^115A, L^247T) was used as the parental phenotype for mutations described in this study. We mutated the lone unpaired cysteine in the extracellular domain (C^115) to alanine to allow for a more straightforward interpretation of thiol modification experiments. […] We included the mutation of leucine 247 in the M2 transmembrane domain (L^247T; L9'T) because of its large current amplitudes and non-desensitizing kinetics compared to wild-type α7 receptors. […] All mutations were introduced by site-directed mutagenesis using the QuikChange method (Agilent Technologies, La Jolla, CA) as described previously, and were confirmed by DNA sequencing.
(§2) cRNA was prepared using the T7 RNA polymerase and mMessage mMachine kit as described by the manufacturer (Applied Biosystems, Austin, TX). Oocytes were surgically removed and prepared from female Xenopus laevis in accordance with UNC Institutional Animal Care and Use Committee guidelines. Oocytes were injected with 20 ng of cRNA and incubated at 18°C in ND96 (96 mM NaCl, 2 mM KCl, 1 mM MgCl2, 1.8 mM CaCl2, 5 mM Na pyruvate, 50 μg/ml gentamicin, 5 mM HEPES, pH 7.5) for 2–5 days before use. For some mutants we co-injected cRNA encoding the human RIC-3 [38], a protein shown to enhance expression of α7 AChRs in both mammalian cells and oocytes.
(§3) Oocytes were superfused in normal extracellular solution containing a reduced Ca^2+ concentration (ESLC; 96 mM NaCl, 2 mM KCl, 1 mM MgCl2, 0.1 mM CaCl2, and 10 mM HEPES, pH 7.5). […] Two-electrode voltage clamp was performed with a GeneClamp 500B controlled by pCLAMP8 software (Molecular Devices, Sunnyvale, CA). Electrodes were filled with 3 M KCl contacting Ag-AgCl wires and had resistances of 0.5 to 2.0 MΩ. Currents were recorded at a constant holding potential of -60 mV. Currents were low pass filtered at 50 Hz and sampled at 100 Hz. Agonist dose-response curves were obtained as described previously, and data were fit to the Hill equation using Origin software (Microcal Software, Northampton, MA).
(§4) MTSEA was prepared daily in distilled water and stored on ice. Stock solution was diluted to the appropriate working concentration in ESLC immediately before each application. […] To measure the effect of Ba^2+ on modification rates we pre-applied 10 mM Ba^2+ for 30 seconds prior to co-application of 10 mM Ba^2+ plus MTSEA. […] Kinetic data were analyzed as described previously; rate data were fit to a single exponential to extract a pseudo-first order rate constant; this was divided by the MTSEA concentration used to determine the second order rate constant for thiol modification.
For orientation: In two-electrode clamp one electrode senses voltage and the other passes current.

Assay [3] addresses α7 AChR N^170C mutant (C^115A/L^247T background) (Gallus gallus, UniProt P22770, C138A/L270T/N193C). The description is as above. To be noted: co-expression with human RIC-3.
From the text: as §1, §2, §3, §4

The target of assay [4] is α7 AChR E^44C mutant (C^115A/L^247T background) (Gallus gallus, UniProt P22770, C138A/E67C/L270T). The assay is described as above.
From the text: as §1, §2, §3, §4

Assay [5] addresses α7 AChR E^172C mutant (C^115A/L^247T background) (Gallus gallus, UniProt P22770, C138A/E195C/L270T). The description is as above. To be noted: co-expression with human RIC-3.
From the text: as §1, §2, §3, §4

Assay [6] addresses α7 AChR M^40C/E^172Q mutant (C^115A/L^247T background) (Gallus gallus, UniProt P22770, C138A/E195Q/L270T/M63C). The assay is described as above. To be noted: co-expression with human RIC-3.
From the text: as §1, §2, §3, §4

Assay [7] deals with α7 C^115A/L^247T receptor (Gallus gallus, UniProt P22770, C138A/L270T). The assay is described as above.
From the text: as §1, §2, §3, §4

The target in assay [8] is α7 AChR M^37C mutant (C^115A/L^247T background) (Gallus gallus, UniProt P22770, C138A/L270T/M60C). Described as above.
From the text: as §1, §2, §3, §4

Consider `CC(=O)OCC[N+](C)(C)C` [ACh, acetylcholine chloride], for which the “ACh Imax” value in assay [1] is 3.0 μA; in assay [2], 0.34 μA; in assay [3] it was 1.7 μA; in assay [4], 5.4 μA; in assay [5], 1.3 μA; in assay [6] it was 0.7 μA. The entries for the “ACh Imax” value in assay [7] and in assay [8] were 6.9 μA and 0.92 μA, respectively. Moreover, the “Hill coefficient of ACh dose-response” value was found to be 2.9 ± 0.7 in assay [4] (+ 10 mM BaCl2), 1.7 ± 0.2 in assay [4] (-Ba^2+), 1.9 ± 0.4 in assay [7] (+ 10 mM BaCl2) and 2.5 ± 0.2 in assay [7] (-Ba^2+).
